From patent US20230411006A1, “METHOD FOR ASSESSING THE AREA UNDER THE CURVE OF AN IMMUNOSUPRESSANT AND ASSOCIATED METHOD AND SYSTEMS” (INSTITUT NATIONAL DE LA SANTE ET DE LA RECHERCHE MEDICALE, priority 2020, published 2023)
Like-named read-outs stand apart in the source and are kept apart here.

Tests used:
[1] = Tacrolimus concentrations and interdose AUC in ISBA requests of renal transplant patients; conditions: human, in vivo, oral; for concentration at 3 h: read-out: Concentration C3 at 3 h; for concentration at 1 h: read-out: Concentration C1 at 1 h; for C0: read-out: Through level C0
Experimental: Tacrolimus requests from ISBA website were extracted and cleaned using the tidyverse framework. Patient with a renal transplantation and tacrolimus concentrations measured using HPLC methods were selected. The requests including at least 3 sample times at 0 minutes (min), 60 min and 180 min after dose intake were selected with a range of selection of 30 min to 100 min for the 60 min and 140 min to 220 min for the 180 min (the 0, 60, 180 min is the optimal sampling schedule for Prograf® and Advagraf® while the optimal sampling times requested for Envarsus® is 0, 8 and 12 h after dose intake and this later formulation was not included in the analysis).
The dataset was split into two datasets according to the tacrolimus interdose and two independent prediction functions were developed, one for twice a day formulations (TAD; Prograf®) and one for once a day formulations (OAD; Advagraf®).
The present study used supervised learning to predict the inter-dose AUC for which the reference value have been obtained by MAP-BE in the ISBA website based on 3 concentrations.
The tacrolimus concentrations were binned into 3 theoretical time classes (concentrations at trough (C0 sampled at t=0 min), at 1 h (C1 sampled between 30 and 100 min) and at 3 h (C3 sampled between 140 and 220 min), leading to 3 columns per patient.

[2] = Mycophenolic acid interdose AUC0-12 h in ISBA requests (MPA plasma levels after MMF dose); type: in vivo, human; conditions: for AUC: human, plasma, oral, Median, read-out: Interdose AUC0_12 h
Experimental: For patients and data, the dataset was sequentially refined by selecting the requests where MPA plasma levels were measured using HPLC, including at least 3 times of sampling approximately 20 min (10 to 30 min, C20), 60 min (30 to 100 min, C1) and 180 min (140 to 220 min, C3) after dose intake. Actually, the 20, 60, 180 min is the optimal sampling schedule for MMF. A filter was applied to select the requests with an interdose of 12 h. The other predictors available were the morning dose of MMF, the time elapsed between transplantation and MPA plasma sampling, the type of transplant, the associated immunosuppressant and patient age.

C=CC[C@@H]1/C=C(\C)C[C@H](C)C[C@H](OC)[C@H]2O[C@@](O)(C(=O)C(=O)N3CCCC[C@H]3C(=O)O[C@H](/C(C)=C/[C@@H]3CC[C@@H](O)[C@H](OC)C3)[C@H](C)[C@@H](O)CC1=O)[C@H](C)C[C@@H]2OC [tacrolimus]
concentration at 3 h ([1]; Maximum, OAD, Test (n = 394)): 17.9 ng/mL
concentration at 3 h ([1]; Maximum, OAD, Train (n = 1184)): 18.4 ng/mL
concentration at 3 h ([1]; Maximum, TAD, Test (n = 1236)): 16.9 ng/mL
concentration at 3 h ([1]; Maximum, TAD, Train (n = 3708)): 16.6 ng/mL
concentration at 1 h ([1]; Maxmum, OAD, Test (n = 394)): 17.1 ng/mL
concentration at 1 h ([1]; Maxmum, OAD, Train (n = 1184)): 18.4 ng/mL
concentration at 1 h ([1]; Maxmum, TAD, Test (n = 1236)): 21.7 ng/mL
concentration at 1 h ([1]; Maxmum, TAD, Train (n = 3708)): 21.4 ng/mL
concentration at 1 h ([1]; Median, OAD, Test (n = 394)): 12.3 ng/mL
concentration at 3 h ([1]; Median, OAD, Test (n = 394)): 13 ng/mL
AUC ([1]; Median, OAD, Test (n = 394), read-out: Interdose AuC): 222 ng·h/mL
C0 ([1]; Median, OAD, Test (n = 394)): 12.3 ng/mL
concentration at 1 h ([1]; Median, OAD, Train (n = 1184)): 12.6 ng/mL
concentration at 3 h ([1]; Median, OAD, Train (n = 1184)): 13.9 ng/mL
AUC ([1]; Median, OAD, Train (n = 1184), read-out: Interdose AuC): 236 ng·h/mL
C0 ([1]; Median, OAD, Train (n = 1184)): 12.6 ng/mL
concentration at 1 h ([1]; Median, TAD, Test (n = 1236)): 15.4 ng/mL
concentration at 3 h ([1]; Median, TAD, Test (n = 1236)): 12.8 ng/mL
AUC ([1]; Median, TAD, Test (n = 1236), read-out: Interdose AuC): 130 ng·h/mL
C0 ([1]; Median, TAD, Test (n = 1236)): 15.4 ng/mL
concentration at 1 h ([1]; Median, TAD, Train (n = 3708)): 14.7 ng/mL
concentration at 3 h ([1]; Median, TAD, Train (n = 3708)): 12.4 ng/mL
AUC ([1]; Median, TAD, Train (n = 3708), read-out: Interdose AuC): 128 ng·h/mL
C0 ([1]; Median, TAD, Train (n = 3708)): 14.7 ng/mL
concentration at 1 h ([1]; Minimum, OAD, Test (n = 394)): 8.6 ng/mL
concentration at 3 h ([1]; Minimum, OAD, Test (n = 394)): 9.51 ng/mL
concentration at 1 h ([1]; Minimum, OAD, Train (n = 1184)): 9 ng/mL
concentration at 3 h ([1]; Minimum, OAD, Train (n = 1184)): 9.8 ng/mL
concentration at 1 h ([1]; Minimum, TAD, Test (n = 1236)): 10.5 ng/mL
concentration at 3 h ([1]; Minimum, TAD, Test (n = 1236)): 9.6 ng/mL
concentration at 1 h ([1]; Minimum, TAD, Train (n = 3708)): 10.2 ng/mL
concentration at 3 h ([1]; Minimum, TAD, Train (n = 3708)): 9.3 ng/mL
AUC ([1]; OAD, cleaned ISBA datasets, read-out: interdose AUCs range): 44 to 698 ng·h/mL
AUC ([1]; TAD, cleaned ISBA datasets, read-out: interdose AUCs range): 22 to 380 ng·h/mL

COc1c(C)c2c(c(O)c1C/C=C(\C)CCC(=O)O)C(=O)OC2 [mycophenolic acid]
Interdose AUC0_12 h ([2]; Maximum, TEST (N = 3219)): 163.62 mg·h/L
Interdose AUC0_12 h ([2]; Maximum, TRAIN (N = 9658)): 181.39 mg·h/L
Interdose AUC0_12 h ([2]; Minimum, TEST (N = 3219)): 3.19 mg·h/L
Interdose AUC0_12 h ([2]; Minimum, TRAIN (N = 9658)): 1.12 mg·h/L
AUC ([2]; TEST (N = 3219)): 39200 ng·h/mL
AUC ([2]; TRAIN (N = 9658)): 39300 ng·h/mL
